Measurements from ChEMBL document CHEMBL1201862, “PubChem BioAssay data set” (2004).
Active and inactive are the calls of the source.

Experiments:
[1] = target: T1, Caspase-3 (Homo sapiens, UniProt P42574); experiment: caspase-3 enzyme inhibitors, selectivity check, dose response, selectivity assay for caspase-6 allosteric inhibitor project, biochemical, fluorescence, cherry-picked samples (AID 743291)
T1 sequence (P42574 whole entry): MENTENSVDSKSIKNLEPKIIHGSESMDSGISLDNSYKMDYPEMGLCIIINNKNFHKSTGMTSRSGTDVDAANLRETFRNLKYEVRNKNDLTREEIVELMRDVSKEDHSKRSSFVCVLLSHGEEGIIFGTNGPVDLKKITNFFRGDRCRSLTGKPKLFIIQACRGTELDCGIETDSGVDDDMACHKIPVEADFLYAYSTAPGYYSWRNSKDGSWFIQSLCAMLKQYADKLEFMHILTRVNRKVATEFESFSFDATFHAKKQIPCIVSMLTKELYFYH

[2] = target: Caspase-9 (Homo sapiens, UniProt P55211); experiment: caspase-9 enzyme inhibition, dose response, selectivity assay for caspase-6 inhibitor project, biochemical, fluorescence, plate reader, cherry-picked samples (AID 743293)
Chain of Caspase-9 (P55211 1-315 limits assumed): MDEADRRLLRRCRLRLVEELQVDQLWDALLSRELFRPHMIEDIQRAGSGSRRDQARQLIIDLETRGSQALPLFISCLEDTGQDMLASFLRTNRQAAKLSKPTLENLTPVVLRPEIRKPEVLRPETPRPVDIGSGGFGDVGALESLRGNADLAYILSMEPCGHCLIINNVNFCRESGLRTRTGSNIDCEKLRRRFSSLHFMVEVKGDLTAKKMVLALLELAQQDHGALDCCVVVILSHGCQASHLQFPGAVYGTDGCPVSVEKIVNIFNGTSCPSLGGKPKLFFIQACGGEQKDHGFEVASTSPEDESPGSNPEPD
Chain of Caspase-9 (P55211 331-416 limits assumed): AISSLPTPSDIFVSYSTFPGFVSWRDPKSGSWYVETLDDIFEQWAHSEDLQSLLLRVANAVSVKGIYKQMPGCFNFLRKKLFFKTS

[3] = target: Caspase-8 (Homo sapiens, UniProt Q14790); experiment: caspase-8 inhibition counter-screen, dose response, selectivity assay for caspase-6 inhibitor project, biochemical, Z-IETD-R110 fluorescence, cherry-picked samples (AID 743294)
Chain of Caspase-8 (Q14790 217-374 limits assumed): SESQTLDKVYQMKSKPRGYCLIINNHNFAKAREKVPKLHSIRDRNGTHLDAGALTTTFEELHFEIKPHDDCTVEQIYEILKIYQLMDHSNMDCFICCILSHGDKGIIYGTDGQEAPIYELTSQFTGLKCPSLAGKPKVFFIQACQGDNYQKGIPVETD
Chain of Caspase-8 (Q14790 385-479 limits assumed): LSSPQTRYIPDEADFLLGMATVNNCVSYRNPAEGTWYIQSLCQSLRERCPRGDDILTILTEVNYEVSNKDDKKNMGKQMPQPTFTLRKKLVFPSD

[4] = target: T2, Caspase-6 (Homo sapiens, UniProt P55212); experiment: human caspase-6 inhibitors, dose response, biochemical, VEID-R110 fluorescence, cherry-pick (AID 720632)
T2 sequence (P55212 whole entry): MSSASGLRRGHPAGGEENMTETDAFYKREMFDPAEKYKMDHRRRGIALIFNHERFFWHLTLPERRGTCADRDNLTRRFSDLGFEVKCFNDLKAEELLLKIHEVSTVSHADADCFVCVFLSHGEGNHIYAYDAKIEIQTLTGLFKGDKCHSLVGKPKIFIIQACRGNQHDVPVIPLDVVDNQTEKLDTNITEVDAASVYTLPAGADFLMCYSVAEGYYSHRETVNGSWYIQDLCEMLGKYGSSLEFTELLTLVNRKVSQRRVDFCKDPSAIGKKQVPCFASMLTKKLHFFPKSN

[5] = target: Hexokinase HKDC1 (Homo sapiens, UniProt Q2TB90); experiment: HKDC1 hexokinase inhibitors, dose response, biochemical, W721R variant (AID 504729); assay type: functional
Chain of Hexokinase HKDC1 (Q2TB90 whole entry): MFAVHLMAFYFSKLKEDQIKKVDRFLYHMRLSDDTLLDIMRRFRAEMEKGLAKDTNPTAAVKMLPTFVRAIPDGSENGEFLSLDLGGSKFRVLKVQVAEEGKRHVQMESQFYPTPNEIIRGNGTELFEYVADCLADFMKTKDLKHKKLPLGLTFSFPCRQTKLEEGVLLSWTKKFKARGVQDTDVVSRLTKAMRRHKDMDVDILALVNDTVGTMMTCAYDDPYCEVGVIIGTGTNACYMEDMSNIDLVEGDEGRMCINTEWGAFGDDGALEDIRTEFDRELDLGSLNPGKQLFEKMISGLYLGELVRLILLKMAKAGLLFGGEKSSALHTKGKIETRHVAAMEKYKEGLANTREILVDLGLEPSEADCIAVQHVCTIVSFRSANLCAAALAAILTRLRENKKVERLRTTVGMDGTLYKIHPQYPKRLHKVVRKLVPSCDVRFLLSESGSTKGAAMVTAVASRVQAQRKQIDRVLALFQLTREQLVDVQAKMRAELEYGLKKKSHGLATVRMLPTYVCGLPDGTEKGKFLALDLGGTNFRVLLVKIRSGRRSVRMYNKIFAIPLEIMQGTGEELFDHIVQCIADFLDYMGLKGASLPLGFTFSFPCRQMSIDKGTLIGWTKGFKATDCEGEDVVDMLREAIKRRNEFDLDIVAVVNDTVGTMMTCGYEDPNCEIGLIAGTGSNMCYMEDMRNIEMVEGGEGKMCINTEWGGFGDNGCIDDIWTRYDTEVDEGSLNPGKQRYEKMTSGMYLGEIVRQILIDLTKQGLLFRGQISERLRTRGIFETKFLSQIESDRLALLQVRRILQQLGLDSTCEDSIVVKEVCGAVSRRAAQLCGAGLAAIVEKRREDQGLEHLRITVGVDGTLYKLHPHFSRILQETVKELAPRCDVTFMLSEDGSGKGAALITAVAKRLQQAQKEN

| Compound | AC50 [1] | AC50 [2] | AC50 [3] | AC50 [4] | IC50 [5] |
| --- | --- | --- | --- | --- | --- |
| COc1cc2c(cc1OC)-c1c(OC)c(OC)cc3c1[C@H](C2)N(C)CC3 | 6.27 µM (active) | 39.9 µM (active) | 48.1 µM (active) | 0.926 µM (active) |  |
| O=C1C(Cl)=C(N2CCC(C(=O)O)CC2)C(=O)c2ccccc21 |  |  |  |  | 8.29 µM (active) |
